Assay results published in patent publication US8609635B2, “Fused tricyclic silyl compounds and methods of use thereof for the treatment of viral diseases” (priority 2010, dated 2013).

Assays:
[1] = tested on: HCV replicon gt1b_con1; experiment: Cell-based HCV replicon assay (TaqMan), genotype 1b (Con1); details: Hepatitis C virus, 72 h; replicon 1b (Con1); replicon RNA by TaqMan, day 3
How it was run: (§1)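 Replicon cells seeded at 5000 cells/well with compound (10 serial 2-fold dilutions from 250 μM to 1 μM top dose; 0.5% DMSO, 5% FBS) and lysed on day 3. Replicon RNA quantified by multiplex TaqMan RT-PCR (NS5B amplicon, GAPDH control); ΔCT versus concentration fitted to sigmoid dose-response. Chimeras carry patient-isolate NS5A.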

[2] = tested on: HCV replicon gt2a_JFH; experiment: Cell-based HCV replicon assay (TaqMan), genotype 2a (JFH); details: Hepatitis C virus, 72 h, replicon 2a (JFH); replicon RNA by TaqMan, day 3
How it was run: as §1

[3] = tested on: HCV chimeric replicon with NS5A of genotype 4a (DQ41878); experiment: Cell-based HCV replicon assay (TaqMan), chimeric replicon genotype 4a (DQ41878); details: Hepatitis C virus, 72 h, read-out: HCV replicon EC50 4a (DQ41878)
How it was run: as §1

[4] = tested on: HCV replicon 1a (L31V) mutant; experiment: Cell-based HCV replicon assay (TaqMan), genotype 1a mutant L31V; details: Hepatitis C virus, 72 h, read-out: HCV replicon EC50 1a (L31V)
Experimental: Measurement of inhibition by compounds of the present invention was performed using the HCV replicon system. Several different replicons encoding different HCV genotypes or mutations were used. In addition, potency measurements were made using different formats of the replicon assay, including different ways of measurements and different plating formats. See Jan M. Vrolijk et al., A replicons-based bioassay for the measurement of interferons in patients with chronic hepatitis C, 110 J. VIROLOGICAL METHODS 201 (2003); Steven S. Carroll et al., Inhibition of Hepatitis C Virus RNA Replication by 2′-Modified Nucleoside Analogs, 278(14) J. BIOLOGICAL […] 11979 (2003). However, the underlying principles are common to all of these determinations, and are outlined below.
Compounds of the present invention were assayed for cell-based anti-HCV activity using the following protocol. Replicon cells were seeded at 5000 cells/well in 96-well collagen I-coated Nunc plates in the presence of the test compound. Various concentrations of test compound, typically in 10 serial 2-fold dilutions, were added to the assay mixture, with the starting concentration ranging from 250 μM to 1 μM. The final concentration of DMSO was 0.5%, fetal bovine serum was 5%, in the assay media. Cells were harvested on day 3 by the addition of 1× cell lysis buffer (Ambion cat #8721). The replicon RNA level was measured using real time PCR (TaqMan® assay). The amplicon was located in 5B. The PCR primers were: 5B.2F, […] (SEQ. ID NO. 1); 5B.2R, […] (SEQ. ID NO. 2); the probe sequence was FAM-labeled […] (SEQ. ID NO. 3). GAPDH RNA was used as endogenous control and was amplified in the same reaction as NS5B (multiplex PCR) using primers and VIC-labeled probe recommended by the manufacturer (PE Applied Biosystem). The real-time RT-PCR reactions were run on ABI PRISM 7900HT Sequence Detection System using the following program: 48° C. for 30 minutes, 95° C. for 10 minutes, 40 cycles of 95° C. for 15 sec, 60° C. for 1 minute. The ΔCT values (CT5B-CTGAPDH) were plotted against the concentration of test compound and fitted to the sigmoid dose-response model using XLfit4 (MDL). […] Alternatively, to quantitate the absolute amount of replicon RNA, a standard curve was established by including serially diluted T7 transcripts of replicon RNA in the Taqman assay. All TaqMan® reagents were from PE Applied Biosystems. Such an assay procedure was described in detail in e.g. Malcolm et al., Antimicrobial Agents and Chemotherapy 50: 1013-1020 (2006).
Wherein gt1a_H77 was prepared as described in Yi et al., J Virol. 2004, 78(15):7904-15; gt1b_con1 was prepared as described in Lohmann et al., Science 1999, 285(5424):110-3; and gt2a_JFH was prepared as described in Kato et al., Gastroenterology. 2003, 125(6):1808-17. Chimeric replicons contain NS5A from patient isolates of genotypes 1a, 1b, 2b, 3a and 4a as indicated.

[5] = Pharmacokinetic analysis in dogs; format: in vivo, male beagle dogs; details: Dog, dihydrochloride salt, 2 mpk/PO, 1 mpk/IV
Experimental: Various pharmacokinetic parameters for compound 56 were measured in rats, dogs and monkeys as described below.
Following an overnight fast, male beagle dogs were dosed with the dihydrochloride salt of compound 56 orally at 2 mg/kg as a suspension in 0.4% hydroxylpropyl methylcellulose (HPMC) or intravenously at 1 mg/kg as a solution in 20% hydroxypropyl-β-cyclodextrin (20% HPβCD). For oral dosing, the animals were typically restrained by hand and dosed by oro-gastric intubation. Dogs were fed approximately 4 hours after dosing. Blood samples were collected from the jugular or cephalic vein at 0.25, 0.5, 1, 2, 4, 6, 8, 12, 24, 48, 72 and 96 hrs (PO) and 0.167, 0.25, 0.5, 1, 2, 4, 6, 8, 12, 24, 48, 72 and 96 hrs (IV) post-dosing and centrifuged to generate plasma. The plasma samples were stored at […] until analysis.
Collected plasma samples were analyzed for the presence of compound 56 using LC-MS/MS as described below.
The HPLC/API-MS/MS system for the example data consisted of a HPLC pumping system and a auto sampler with the sample tray refrigeration option connected directly to a triple quadrupole mass spectrometer with an API source. Typical HPLC methods for the example data was based on a fast gradient of two solvents: solvent A consisted of 0.1% formic acid in water, and solvent B consisted of 0.1% formic acid in acetonitrile. A fast linear gradient (start at 90% A for 0.2 min, ramp to 95% B from 0.2 to 0.5 min, hold at 95% B […], then ramp back to 90% A from 1.0 to 1.1 min, then hold at, […] from 1.1 to 1.2 min) was used. The flow rate for the HPLC system was set to 1 mL/min throughout the HPLC gradient; the HPLC column was a Halo C18 column (2.7 micron particle size, 50×2.1 mm). The example compounds were analyzed by positive ion atmospheric pressure chemical ionization tandem mass spectrometry (APCI-MS/MS). As a general procedure, selected reaction monitoring (SRM) methods were developed for each compound prior to analysis of the plasma samples. Normally, the individual SRM transitions were based on a fragmentation from the protonated molecule ([MH].) to a characteristic product ion.
Using the methods described above, the following pharmacokinetic parameters were calculated in rats, dogs and monkeys and the results are summarized in the table below.

For `COC(=O)N[C@H](C(=O)N1CC(F)(F)C[C@H]1c1ncc(-c2ccc(-c3ccc4c(ccc5nc([C@@H]6C[Si](C)(C)CN6C(=O)[C@@H](NC(=O)OC)C(C)C)[nH]c54)c3)cc2)[nH]1)C(C)C` [Compound 56], the EC50 [1] was 0.003 nM, the EC50 [2] was 0.027 nM and the EC50 [3] was 0.02 nM. For the same compound, the EC50 [4] was 16 nM, the “Effective Half-Life” value [5] was 18 h and the “Volume of Distribution” value [5] was 1.3 L/kg. For the same compound, the “Oral Bioavailability” value ([5]; dose-normalized AUC between PO and IV) was 8.7% and the clearance ([5]; male, beagle, plasma, 1 mg/kg, read-out: Systemic Clearance) was 0.048 L/h/kg.
